US20120202794A1 (priority 2011, published 2012)

Tests used:
HCV Replicon 1b = test: HCV inhibition assay, HCV replicon 1b (Clone A or ET-lunet cells; RT-PCR or luciferase reporter); assay type: cell-based; settings: Hepatitis C virus, 96 h, HCV replicon 1b; 4 days incubation; read-out: Replicon 1b potency EC90
Outline: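 Clone A (1500/well) or ET-lunet (3000/well) replicon cells treated with serially diluted compounds (0.5% DMSO, no G418) for 4 days at 37 °C. HCV RNA measured by one-step RT-PCR normalized to rRNA (ΔΔCt) or by luciferase luminescence versus DMSO controls; EC50/EC90 by curve fitting.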

[1] = Cell cytotoxicity assay (MTS), CC90 as reported in Table 1, cell line not stated; assay type: cell-based; settings: human; cell line not given
Outline: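 Compounds, serially diluted from 100 μM, were incubated 8 days at 37° C with Huh7, HepG2 or BxPC3 (2×10^3 cells/well) or CEM (5×10^3 cells/well). Viability was read by MTS, 2 h, absorbance 490 nm. CC90 (90% inhibition) was taken against untreated cells.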

Compound | EC90 (HCV Replicon 1b) [µM] | CC90 at 8 days [1] [µM]
CC(C)C[C@H]1C(=O)N[C@@H](C2CCCCC2)CN1Cc1cc(-c2ccc(Cl)cc2)on1 [Compound 211, (3S,6S)-4-((5-(4-chlorophenyl)isoxazol-3-yl)methyl)-6-cyclohexyl-3-isobutylpiperazin-2-one] | 0.41 | > 10
CC(C)C[C@H]1C(=O)N[C@@H](C2CCCC2)CN1Cc1cc(-c2ccc(Cl)cc2)on1 [Compound 212, (3S,6S)-4-((5-(4-chlorophenyl)isoxazol-3-yl)methyl)-6-cyclopentyl-3-isobutylpiperazin-2-one] | 0.26 | > 10
CCC(C)[C@H]1CN(Cc2cc(-c3ccc(F)cc3)on2)[C@@H](CC(C)C)C(=O)N1 (stereo partly drawn) [Compound 214] | 0.72 | > 10
CC(C)C[C@H]1C(=O)N[C@@H](c2ccccc2)CN1Cc1cc(-c2ccc(F)cc2)on1 [Compound 215, (3S,6S)-4-((5-(4-fluorophenyl)isoxazol-3-yl)methyl)-3-isobutyl-6-phenylpiperazin-2-one] | 0.19 | > 10
CC(C)C[C@H]1C(=O)N[C@@H](C2CC2)CN1Cc1cc(-c2ccc(F)cc2)on1 [Compound 216, (3S,6S)-6-cyclopropyl-4-((5-(4-fluorophenyl)isoxazol-3-yl)methyl)-3-isobutylpiperazin-2-one] | 1.6 | > 10
CSC[C@H]1CN(Cc2cc(-c3ccc(F)cc3)on2)[C@@H](CC(C)C)C(=O)N1 [Compound 217, (3S,6R)-4-[5-(4-Fluoro-phenyl)-isoxazol-3-ylmethyl]-3-isobutyl-6-methylsulfanylmethyl-piperazin-2-one] | 0.82 | > 10
CSC[C@H]1CN(Cc2cc(-c3ccc(Cl)cc3)on2)[C@@H](CC(C)C)C(=O)N1 [Compound 218, (3S,6R)-4-((5-(4-chlorophenyl)isoxazol-3-yl)methyl)-3-isobutyl-6-((methylthio)methyl)piperazin-2-one] | 0.75 | > 10
CC(C)C[C@H]1C(=O)N[C@@H](c2ccccc2)CN1Cc1cc(-c2ccc(Cl)cc2)on1 [Compound 219, (3S,6S)-4-((5-(4-chlorophenyl)isoxazol-3-yl)methyl)-3-isobutyl-6-phenylpiperazin-2-one] | 4.5 | > 10
CC(C)C[C@H]1CN(Cc2ccc(F)cc2C(F)(F)F)[C@@H](CC(C)C)C(=O)N1 [Compound 220, (3S,6S)-4-(4-fluoro-2-(trifluoromethyl)benzyl)-3,6-diisobutylpiperazin-2-one] | 8.35 | > 10
CC(C)C[C@H]1CN(Cc2ccc(F)c(C(F)(F)F)c2)[C@@H](CC(C)C)C(=O)N1 [Compound 221, (3S,6S)-4-(4-fluoro-3-(trifluoromethyl)benzyl)-3,6-diisobutylpiperazin-2-one] | > 10 | > 10
CC(C)C[C@H]1CN(Cc2cc(F)ccc2F)[C@@H](CC(C)C)C(=O)N1 [Compound 222, (3S,6S)-4-(2,5-difluorobenzyl)-3,6-diisobutylpiperazin-2-one] | 9.7 | > 10
CC(C)C[C@H]1CN(Cc2cc(C(F)(F)F)cc(C(F)(F)F)c2)[C@@H](CC(C)C)C(=O)N1 [Compound 223, (3S,6S)-4-(3,5-Bis-trifluoromethyl-benzyl)-3,6-diisobutyl-piperazin-2-one] | 4.49 | > 10
CC(C)C[C@H]1CN(Cc2c(F)cccc2F)[C@@H](CC(C)C)C(=O)N1 [Compound 224, (3S,6S)-4-(2,6-Difluoro-benzyl)-3,6-diisobutyl-piperazin-2-one] | 8.36 | > 10
CCc1ccc(CN2C[C@H](CC(C)C)NC(=O)[C@@H]2CC(C)C)cc1 [Compound 225, (3S,6S)-4-(4-Ethyl-benzyl)-3,6-diisobutyl-piperazin-2-one] | 3.51 | > 10
CC(C)C[C@H]1CN(Cc2ccc(Cl)c(Cl)c2)[C@@H](CC(C)C)C(=O)N1 [Compound 226, (3S,6S)-4-(3,4-Dichloro-benzyl)-3,6-diisobutyl-piperazin-2-one] | 8.87 | > 10
CC(C)C[C@H]1CN(Cc2ccc(F)c(Cl)c2)[C@@H](CC(C)C)C(=O)N1 [Compound 227, (3S,6S)-4-(3-Chloro-4-fluoro-benzyl)-3,6-diisobutyl-piperazin-2-one] | > 10 | > 10
CC(C)C[C@H]1CN(Cc2ccc(OC(F)(F)F)cc2)[C@@H](CC(C)C)C(=O)N1 [Compound 228, (3S,6S)-3,6-Diisobutyl-4-(4-trifluoromethoxy-benzyl)-piperazin-2-one] | 3.26 | > 10

Compound | EC90 (HCV Replicon 1b) [µM] | CC90 at 8 days [1] [µM]
CC(C)C[C@H]1CN(Cc2cc(C(F)(F)F)ccc2Cl)[C@@H](CC(C)C)C(=O)N1 [Compound 229, (3S,6S)-4-(2-Chloro-5-trifluoromethyl-benzyl)-3,6-diisobutyl-piperazin-2-one] | 5.12 | > 10
CCC[C@H]1CN(C(=O)[C@@H]2C[C@H]2c2ccccc2)[C@@H](CC(C)C)C(=O)N1 [Compound 230, (3S,6S)-3-isobutyl-4-((1R,2R)-2-phenylcyclopropanecarbonyl)-6-propylpiperazin-2-one] | 0.57 | > 10
CC(C)C[C@H]1C(=O)N[C@@H](C2CCCCC2)CN1C(=O)[C@@H]1C[C@H]1c1ccccc1 [Compound 231, (3S,6S)-6-cyclohexyl-3-isobutyl-4-((1R,2R)-2-phenylcyclopropanecarbonyl)-piperazin-2-one] | 0.93 | > 10
CC(C)C[C@H]1C(=O)N[C@@H](C2CCCC2)CN1C(=O)[C@@H]1C[C@H]1c1ccccc1 [Compound 232, (3S,6S)-6-cyclopentyl-3-isobutyl-4-((1R,2R)-2-phenylcyclopropanecarbonyl)-piperazin-2-one] | 0.69 | > 10
CC(C)C[C@H]1C(=O)N[C@@H](C(C)C)CN1C(=O)[C@@H]1C[C@H]1c1ccccc1 [Compound 233, (3S,6S)-3-isobutyl-6-isopropyl-4-((1R,2R)-2-phenylcyclopropanecarbonyl)piperazin-2-one] | 0.93 | > 10
CC(C)C[C@H]1C(=O)N[C@@H](c2ccccc2)CN1C(=O)[C@@H]1C[C@H]1c1ccccc1 [Compound 234, (3S,6S)-3-isobutyl-6-phenyl-4-((1R,2R)-2-phenylcyclopropanecarbonyl)piperazin-2-one] | 0.3 | > 10
CC(C)C[C@H]1C(=O)N[C@@H](C2CC2)CN1C(=O)[C@@H]1C[C@H]1c1ccccc1 [Compound 235, (3S,6S)-6-cyclopropyl-3-isobutyl-4-((1R,2R)-2-phenylcyclopropanecarbonyl)-piperazin-2-one] | 4.2 | > 10
CC(C)C[C@H]1CN(C(=O)[C@@H]2C[C@H]2c2ccc(F)cc2)[C@@H](CC(C)C)C(=O)N1 [Compound 236, (3S,6S)-4-[(1R,2R)-2-(4-Fluoro-phenyl)-cyclopropanecarbonyl]-3,6-diisobutyl-piperazin-2-one] | 0.08 | > 10
CC(C)C[C@H]1CN(C(=O)[C@@H]2C[C@H]2c2ccc(Cl)cc2)[C@@H](CC(C)C)C(=O)N1 [Compound 237, (3S,6S)-4-[(1R,2R)-2-(4-Chloro-phenyl)-cyclopropanecarbonyl]-3,6-diisobutyl-piperazin-2-one] | 0.27 | > 10
CC(C)C[C@H]1CN(C(=O)[C@@H]2C[C@H]2c2ccc(F)c(F)c2)[C@@H](CC(C)C)C(=O)N1 [Compound 238, (3S,6S)-4-[(1R,2R)-2-(3,4-Difluoro-phenyl)-cyclopropanecarbonyl]-3,6-diisobutyl-piperazin-2-one] | 0.59 | > 10
COc1ccc([C@@H]2C[C@H]2C(=O)N2C[C@H](CC(C)C)NC(=O)[C@@H]2CC(C)C)cc1 [Compound 239, (3S,6S)-3,6-Diisobutyl-4-[(1R,2R)-2-(4-methoxy-phenyl)-cyclopropanecarbonyl]-piperazin-2-one] | 0.96 | > 10
CCC[C@H]1CN(C(=O)[C@@H]2C[C@H]2c2ccc(F)cc2)[C@@H](CC(C)C)C(=O)N1 [Compound 240, (3S,6S)-4-[(1R,2R)-2-(4-Fluoro-phenyl)-cyclopropanecarbonyl]-3-isobutyl-6-propyl-piperazin-2-one] | 0.1 | > 10
CC(C)C[C@H]1C(=O)N[C@@H](C2CCCCC2)CN1C(=O)[C@@H]1C[C@H]1c1ccc(F)cc1 [Compound 241, (3S,6S)-6-Cyclohexyl-4-[(1R,2R)-2-(4-fluoro-phenyl)-cyclopropanecarbonyl]-3-isobutyl-piperazin-2-one] | 0.15 | > 10
CC(C)C[C@H]1C(=O)N[C@@H](C2CCCC2)CN1C(=O)[C@@H]1C[C@H]1c1ccc(F)cc1 [Compound 242, (3S,6S)-6-Cyclopentyl-4-[(1R,2R)-2-(4-fluoro-phenyl)-cyclopropanecarbonyl]-3-isobutyl-piperazin-2-one] | 0.06 | > 10
CC(C)C[C@H]1C(=O)N[C@@H](CC2CC2)CN1C(=O)[C@@H]1C[C@H]1c1ccc(Cl)cc1 [Compound 243, (3S,6S)-4-[(1R,2R)-2-(4-Chloro-phenyl)-cyclopropanecarbonyl]-6-cyclopropylmethyl-3-isobutyl-piperazin-2-one] | 0.43 | > 10
CCC[C@H]1CN(C(=O)[C@@H]2C[C@H]2c2ccc(Cl)cc2)[C@@H](CC(C)C)C(=O)N1 [Compound 244, (3S,6S)-4-[(1R,2R)-2-(4-Chloro-phenyl)-cyclopropanecarbonyl]-3-isobutyl-6-propyl-piperazin-2-one] | 0.07 | > 10
